Data on one compound can be found in PMC4669708 (Cell Death & Disease, 2015).

The target of one test is CDK16 (Homo sapiens, UniProt Q00536). The test is described as follows: c-ponatinib pulldown LC-MS/MS. The format is binding. The procedure, abridged:
(§1)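 c-Ponatinib (25 nmol) immobilized on NHS-Sepharose was incubated with 10 mg whole cell lysate per replicate, in duplicate. Eluates were reduced, alkylated, trypsin-digested and analysed by gel-free 1D LC-MS/MS. Specificity was scored from Mascot, Phenyx and spectral counts, with competition by free compound.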

The target in another test is T1, TAB1 (Homo sapiens, UniProt Q15750).
T1 sequence (Q15750 1-504): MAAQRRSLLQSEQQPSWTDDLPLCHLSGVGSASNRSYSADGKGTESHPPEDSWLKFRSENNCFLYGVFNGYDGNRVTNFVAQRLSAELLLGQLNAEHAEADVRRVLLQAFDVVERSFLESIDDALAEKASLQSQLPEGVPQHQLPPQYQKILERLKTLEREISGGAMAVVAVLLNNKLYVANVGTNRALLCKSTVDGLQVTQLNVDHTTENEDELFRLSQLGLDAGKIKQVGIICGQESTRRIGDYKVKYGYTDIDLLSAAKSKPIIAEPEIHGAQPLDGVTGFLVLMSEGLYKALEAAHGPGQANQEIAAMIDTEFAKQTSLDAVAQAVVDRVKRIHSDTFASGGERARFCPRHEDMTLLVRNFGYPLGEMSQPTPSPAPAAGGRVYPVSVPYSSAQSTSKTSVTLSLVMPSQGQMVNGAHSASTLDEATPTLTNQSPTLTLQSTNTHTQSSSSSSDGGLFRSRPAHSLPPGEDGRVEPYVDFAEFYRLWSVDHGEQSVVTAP
T1 sequence (O43318 1-606 partner): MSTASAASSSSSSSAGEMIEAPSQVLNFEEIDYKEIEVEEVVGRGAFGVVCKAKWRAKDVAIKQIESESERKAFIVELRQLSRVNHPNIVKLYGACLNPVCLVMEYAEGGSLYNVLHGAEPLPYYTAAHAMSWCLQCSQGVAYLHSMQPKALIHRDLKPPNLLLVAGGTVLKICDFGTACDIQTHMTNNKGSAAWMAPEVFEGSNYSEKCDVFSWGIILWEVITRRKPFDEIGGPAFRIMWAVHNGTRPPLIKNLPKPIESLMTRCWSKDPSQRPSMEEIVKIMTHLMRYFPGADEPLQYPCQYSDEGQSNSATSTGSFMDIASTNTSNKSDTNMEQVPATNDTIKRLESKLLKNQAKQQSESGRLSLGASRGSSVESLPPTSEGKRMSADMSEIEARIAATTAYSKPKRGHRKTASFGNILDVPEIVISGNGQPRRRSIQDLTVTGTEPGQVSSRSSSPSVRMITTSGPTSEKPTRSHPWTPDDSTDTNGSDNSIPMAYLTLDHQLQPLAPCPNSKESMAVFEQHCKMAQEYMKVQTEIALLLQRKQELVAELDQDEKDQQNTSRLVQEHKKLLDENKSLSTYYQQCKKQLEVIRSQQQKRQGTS
The experiment in a line: c-ponatinib pulldown LC-MS/MS. Type of test: binding. The procedure, abridged:
as §1

CDK16, sequence (Q00536 whole entry): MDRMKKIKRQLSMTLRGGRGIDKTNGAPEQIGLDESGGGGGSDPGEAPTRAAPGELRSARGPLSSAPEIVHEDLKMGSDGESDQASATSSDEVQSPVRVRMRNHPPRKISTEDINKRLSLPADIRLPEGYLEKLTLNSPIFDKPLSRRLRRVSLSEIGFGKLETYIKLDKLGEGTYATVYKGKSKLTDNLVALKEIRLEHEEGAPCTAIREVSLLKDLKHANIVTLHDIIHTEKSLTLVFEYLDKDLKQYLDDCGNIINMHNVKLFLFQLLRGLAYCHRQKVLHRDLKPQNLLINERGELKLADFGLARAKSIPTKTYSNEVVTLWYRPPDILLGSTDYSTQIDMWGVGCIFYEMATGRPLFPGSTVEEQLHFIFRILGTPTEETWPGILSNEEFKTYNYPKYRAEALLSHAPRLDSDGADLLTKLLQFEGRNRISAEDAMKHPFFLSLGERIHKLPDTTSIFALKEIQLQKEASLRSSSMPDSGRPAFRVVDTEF

On to `Cc1ccc(C(=O)Nc2ccc(CN3CCN(CCCN)CC3)c(C(F)(F)F)c2)cc1C#Cc1cnc2cccnn12` [c-ponatinib], for which, on CDK16 (+ free ponatinib), the “Av. SC comp.” value was found to be 1.25 and the “Total SC comp.” value came out at 5. Further, at CDK16 (no competitor), the “Av. SC” value was found to be 10.75 and the “Total SC” value worked out at 43. Also, at TAB1 (+ free ponatinib), the “Av. SC comp.” value amounted to 6.75 and the “Total SC comp.” value came to 27. On TAB1 (no competitor), the “Av. SC” value was determined as 38.25 and the “Total SC” value was determined as 153.
